Data as given in patent publication US20230220047A1, “PEPTIDES FOR TREATMENT OF SEPSIS AND CANCER” (NORWEGIAN UNIVERSITY OF SCIENCE AND TECHNOLOGY (NTNU), priority 2020, published 2023).

Experiments:
[1] = system: TLR4; assay: ELISA/Bioplex of LPS-mediated cytokine secretion by THP-1 cells; assay type: cell-based, human; details: 15 μM, 30 min pre-treatment, LPS 100 ng/ml 5 h; relative to P7-Pen
Protocol: (A) Results of LDH assay and ELISAs analysing cytokine secretion after 5 h of stimulation with LPS (graphs show mean values for at least 3 biological replicates). […] In the tables average values are presented based on 3-5 biological replicates for each experiment. […]
TNF in supernatants was detected using a human TNF-alpha DuoSet ELISA (DY210) (R&D Systems); CXCL10 using a DuoSet ELISA (DY266) (R&D Systems); IL-1β using a BD OptEiA human IL-1β ELISA SetII (#557953, BD Biosciences): IFNβ using a VeriKine-HS™ Human Interferon-Beta Serum ELISA Kit (#41415) from PBL Assay Science. Some supernatants were also analysed by multiplex cytokine assay (Bio-Plex; Bio-Rad Laboratories Inc.) for IL-1β, IL-6, IL-8, CXCL10/IP-10. Results are presented as mean and SD for biological replicates for a representative donor (primary human macrophages), or at least three independent experiments for the model cell line THP-1. Statistical significance was evaluated in GraphPad Prizm 5.03. Data distribution was assumed to be normal but this was not formally tested. The difference between the two groups was determined by two-tailed t test.

[2] = system: ANBL-6 multiple myeloma cells; assay: CellTiter-Glo cell viability assay, ANBL-6; assay type: cell-based; details: for effect on proliferation of ANBL-6 cells: 15 μM; for anti-proliferative activity over a concentration series: 5, 10, 12.5, 15, 20 and 30 μM or 5, 10 and 20 μM, 48 h
Protocol: Minor effects on the proliferation of the IH-1 and RPMI 8226 cell lines are seen. Cells were seeded at the level shown (left-hand bar of each set) then incubated in medium containing water, 10 μM penetratin or 10 μM P7-A4-Pen for 48 hr (except for INA-6 cells, which were incubated with 12.5 μM penetratin or 12.5 μM P7-A4-Pen). The number of viable cells was detected based on quantitation of ATP by luminescent signal in correlation to a standard curve prepared for each cell line. Results are based on 3-5 biological replicates for each condition, error bars show standard deviation of mean.
Cells were seeded and then incubated in growth medium alone or supplemented with water, DMSO, 15 μM penetratin or 15 μM investigational peptide. The growth medium only and H2O—, DMSO- and penetratin-supplemented cultures constituted controls.
The solid horizontal lines show the amount of cells originally seeded. In (A) ANBL-6 cells were seeded at a level of 10,000 cells/well, then incubated in medium supplemented with water, the control peptide C3A-Pen, P7-Pen, P7-A4-Pen, P7-N4-Pen or P7-K2-Pen for 48 hours. The peptides were included at concentrations of 5, 10, 12.5, 15, 20 or 30 μM. Cells were counted at 48 hours. In (B), ANBL-6 cells were seeded at a level of 5000 cells/well, then incubated in medium supplemented with water, P6-Pen, P-P6-Pen, P7-D4-Pen or P7-A4-Pen for 48 hours. Peptides were included at concentrations of 5, 10 or 20 μM. Cells were counted at 48 hours. […] Results are based on 3 biological replicates, error bars show standard deviation of mean.
Multiple myeloma cells JJN-3 (DSMZ (Germany) no. ACC 541), ANBL-6 (Cellosaurus accession number CVCL_5425, obtained from Dr Diane Jelinek, Mayo Clinic, Rochester, Minn.), INA-6 (Cellosaurus accession number CVCL_5209, obtained from Dr M. Gramatzki, University of Erlangen-Nurnberg, Erlangen, Germany), RPMI-8226 (ATCC CCL-155), and IH-1 (Cellosaurus accession number CVCL_WZ44, established from the pleural effusion of a myeloma patient by Myeloma research group, IKOM, NTNU, Trondheim, Norway) were grown in RPMI-1640 (Sigma-Aldrich Norway, Oslo, Norway) supplemented with 100 nM penicillin/streptomycin and 10% FCS, and for ANBL-6, IH-1 and INA-6 cells 2 ng/ml recombinant IL-6 (Gibco, Thermo Fisher Scientific, Waltham, Mass., USA). Murine multiple myeloma Vk*MYC cells were obtained from M.D. Leif Bergsagel (Mayo Clinic, Richester, Minn., USA) and cultured in RPMI-1640 supplemented with 2% human serum (B^+, The blood bank, St Olav's Hospital, Trondheim, Norway), 100 nM penicillin/streptomycin, L-Glutamine (2 mM) and recombinant IL-6 (1 ng/ml). HEK293T (ATCC CRL-3216) were cultured in DMEM with 10% FCS. THP-1 TRAM knockout (KO) and TLR4 KO cell lines, and matching lentivirally transduced control cell lines, were differentiated in the same way as wild type (WT) THP-1. TRAM KO THP-1 cell line is described in Yurchenko et al. (supra).
To evaluate the potential impact of the P7 peptide on proliferation of tumour cells of lymphoid origin, we performed a CellTiter-Glo Luminescent Cell Viability Assay to address proliferation of several multiple myeloma (MM) cell lines. For the assay, cells were incubated for 48 h in respective media containing either solvent (water), 10 μM control peptide (Pen) or the SLAMF1-derived peptide P7-A4-Pen for 48 h (FIG. 32) (with the exception of the INA-6 cells which were incubated with 12.5 μM control peptide or P7-A4-Pen). […] This effect could be mediated by P7-A4-Pen-induced inhibition of signalling pathways that are crucial for driving proliferation and/or survival of MM tumour cells.

[3] = system: THP-1 cells; assay: LDH cytotoxicity assay in THP-1 cells; details: CPP screen, 15 μM, 30 min pre-treatment, LPS 100 ng/ml
Protocol: For every assay, separate wells were seeded for the required controls (Spontaneous LDH Release Controls and Maximum LDH Release Control) with the same amount of cells as used for peptide treatments. All supernatants were analysed in triplicate with the average value of technical replicates taken into calculations.
THP-1 cells were pre-treated with increasing concentrations of P7-Arg11 and control peptide Arg11 for 1 h (FIG. 3).

[4] = system: TLR4; assay: Western blot of LPS signalling in THP-1 cells and primary human monocytes; assay type: cell-based; details: data not shown
Protocol: Protein pellets were dissolved by heating protein pellets for 10 min at 95° C. in buffer containing 4 M urea, 1 SDS (Sigma) and NuPAGE® LDS Sample Buffer (4×) (Thermo Fisher Scientific). Otherwise, lysates were made using 1× RIPA lysis buffer (150 mM NaCl, 50 mM TrisHCl (pH 7.5), 1% Triton X100, 5 mM EDTA, protease inhibitors, phosphatase inhibitors). For Western blot analysis we used pre-cast protein gels NuPAGE™ Novex™ and iBlot Transfer Stacks iBlot Gel Transfer Device (Thermo Fisher Scientific). Proteins were transferred to the membrane by dry-blotting using iBlot® 2 NC Regular/Mini Stacks (Life Technologies) in the iBlot 2 Dry Blotting System (Life Technologies). After secondary antibody incubation, membranes were washed and incubated with HRP substrate solution (SuperSignal™ West Femto Maximum Sensitivity Substrate (Thermo Fisher Scientific)). Images were taken using Odyssey® Fc (LI-CORE). Quantification graphs were generated by the analysis of signal intensities for protein bands (protein of interest and endogenous loading control—β-tubulin from the same membrane) using Odyssey software (LI-CORE). Data were normalised to the expression levels of β-tubulin and presented as a relative fold change to the control sample.
Further, we tested the effect of P7-Pen on phosphorylation of p38 MAPK, IκBα degradation and modification of IRAK1 in human macrophages (THP-1 cells) and primary human monocytes. P7-Pen inhibited LPS-mediated phosphorylation of p38 MAPK (FIG. 24A) and inhibited IRAK1 ubiquitination/phosphorylation (visualised as band shift to higher molecular weight) in primary monocytes (FIG. 24B).

[5] = system: TLR4; assay: qPCR of LPS-mediated cytokine mRNA expression in THP-1 macrophages; assay type: cell-based, human; details: control/decoy peptide (data not shown)
Protocol: SW480 (ATCC CCL-228) and Jurkat (ATCC Clone E6-1; TIB-152) cells were cultured in RPMI 1640 (Sigma-Aldrich, Schnelldorf, Germany) supplemented with 10% heat-inactivated FCS, penicillin/streptomycin (Life Technologies) and 20 mM L-Glutamine. THP-1 cells (ATCC TIB-202) were cultured in RPMI-1640 (high-glucose, ATCC) supplemented with 10% heat inactivated foetal calf serum (FCS), 100 nM penicillin/streptomycin and 5 μM β-mercaptoethanol (Sigma). THP-1 cells were differentiated with 60 ng/ml phorbol 12-myristate 13-acetate (PMA, Sigma) for 72 h, followed by 24 or 48 h in medium without PMA.
Total RNA was isolated from the cells using Qiazol reagent #79306 from QIAGEN, and chloroform extraction followed by purification on RNeasy Mini columns with DNAse digestion (Qiagen). cDNA was prepared using the Maxima First Strand cDNA Synthesis Kit for quantitative real-time polymerase chain reaction (RT-qPCR) (Thermo Fisher Scientific) according to the manufacturer's protocol. qPCR was performed using the PerfeCTa qPCR FastMix (Quanta Biosciences) in replicates and cycled in a StepOnePlus™ Real-Time PCR cycler. The following TaqMan® Gene Expression Assays (Applied Biosystems®) were used: IFNβ (Hs01077958_s1), TNF (Hs00174128_m1), TBP (Hs00427620_m1), CXCL10 (Hs01124251_g1), IL-6 (Hs00174131_m1) and IL-1β (Hs01555410_m1), for human cells; Ifnβ (Mm00439552_s1), Tnf (Mm00443258_m1), Tbp (Mm01277042_m1) and II-1β (Mm00434228_m1), for mouse cells. No RT controls were negative. The level of TBP mRNA was used for normalisation and results presented as relative expression compared to the control untreated sample. Relative expression was calculated using Pfaffl's mathematical model (Pfaffl, Nucleic Acids Research 29(9): e45, 2001). Results are presented as the mean and SD expression fold change for biological replicates relative to non-stimulated cells. Statistical significance was evaluated in GraphPad Prizm 5.03. Data distribution was assumed to be normal but this was not formally tested. The difference between the two groups was determined by two-tailed t test.

ATVYASVTLTGRQIKIWFQNRRMKWKK (P7-A1-Pen) [Peptide P7-A1-Pen]
inhibitory activity towards LPS-induced CXCL10, TNF and IL-1β secretion (ELISA) [1]: totally abrogated activity

Ac-IKVYASVTLTGRQIKIWFQNRRMKWKK-NH2 [Peptide P7-K2-Pen]
effect on proliferation of ANBL-6 cells [2]: anti-proliferative effect | anti-proliferative activity over a concentration series [2]: clear concentration-dependent effect

Ac-ITVDASVTLTGRQIKIWFQNRRMKWKK-NH2 [Peptide P7-D4-Pen]
effect on proliferation of ANBL-6 cells [2]: anti-proliferative effect | anti-proliferative activity over a concentration series [2]: clear concentration-dependent effect

Ac-ITVYASVTLDGRQIKIWFQNRRMKWKK-NH2 [Peptide P7-D10-Pen]
inhibitory activity towards LPS-induced CXCL10, TNF and IL-1β secretion (ELISA) [1]: high levels of activity

Ac-ITVYASVTLGGRQIKIWFQNRRMKWKK-NH2 [Peptide P7-G10-Pen]
inhibitory activity towards LPS-induced CXCL10, TNF and IL-1β secretion (ELISA) [1]: high levels of activity

Ac-ITVYASVTLTGRRRRRRR-NH2 [Peptide P7-Arg7, ITVYASVTLTGRRRRRRR]
reduction of LPS-mediated toxicity (LDH assay) [3]: some decrease

Ac-ITVYASVTLTGRRRRRRRRR-NH2 [Peptide P7-Arg9]
reduction of LPS-mediated toxicity (LDH assay) [3]: some decrease

Ac-RRRRRRRRRRRGITVYASVTLT-NH2 [Arg11-P7]
reduction of LPS-mediated toxicity (LDH assay) [3]: some decrease

IATYASTALTGRQIKIWFQNRRMKWKK (Ac-IATYASTALTGRQIKIWFQNRRMKWKK-NH2) [Peptide P7C3-Pen, control peptide]
pattern of inhibition of p38 MAPK phosphorylation and IRAK1 modification as seen with P7-Pen [4]: not

IATYASTALTGRRRRRRRRRRR (Ac-IATYASTALTGRRRRRRRRRRR-NH2) [Peptide P7C3-Arg11, control/decoy peptide]
LPS- or E. coli particle-induced expression of IFNβ, CXCL10 and TNF [5]: no effect

IATYASVTLTGRQIKIWFQNRRMKWKK (Ac-IATYASVTLTGRQIKIWFQNRRMKWKK-NH2) [Peptide P7C3A-Pen, control peptide]
anti-proliferative activity over a concentration series [2]: essentially no anti-proliferative effect

ITLYASVTLTGRQIKIWFQNRRMKWKK (Ac-ITLYASVTLTGRQIKIWFQNRRMKWKK-NH2) [Peptide P7-L3-Pen]
inhibitory activity towards LPS-induced CXCL10, TNF and IL-1β secretion (ELISA) [1]: only partially decreased

ITVSASVTLTGRQIKIWFQNRRMKWKK (Ac-ITVSASVTLTGRQIKIWFQNRRMKWKK-NH2) [Peptide P7-S4-Pen]
effect on proliferation of ANBL-6 cells [2]: anti-proliferative effect

ITVYASVTATGRQIKIWFQNRRMKWKK (P7-A9-Pen) [Peptide P7-A9-Pen]
pattern of inhibition of p38 MAPK phosphorylation and IRAK1 modification as seen with P7-Pen [4]: inactive

ITVYASVTLPAGRQIKIWFQNRRMKWKK (P10-A11-Pen) [P10-Ala11-Pen]
inhibitory activity towards LPS-induced CXCL10, TNF and IL-1β secretion (ELISA) [1]: totally abrogated

ITVYASVTLPEGRQIKIWFQNRRMKWKK (Ac-ITVYASVTLPEGRQIKIWFQNRRMKWKK-NH2) [Peptide P10-Pen]
inhibitory activity towards LPS-induced CXCL10, TNF and IL-1β secretion (ELISA) [1]: totally abrogated

ITVYASVTLTAGRQIKIWFQNRRMKWKK (P11-A11-Pen) [P11-Ala11-Pen]
inhibitory activity towards LPS-induced CXCL10, TNF and IL-1β secretion (ELISA) [1]: totally abrogated

ITVYASVTLTEGRQIKIWFQNRRMKWKK (P11-Pen) [Peptide P11-Pen]
inhibitory activity towards LPS-induced CXCL10, TNF and IL-1β secretion (ELISA) [1]: totally abrogated

NSITVYASVTLTGRQIKIWFQNRRMKWKK (P3sh2-Pen) [Peptide P3sh2-Pen]
inhibitory activity towards LPS-induced CXCL10, TNF and IL-1β secretion (ELISA) [1]: did not cause loss of inhibitory activity

TNSITVYASVTLTGRQIKIWFQNRRMKWKK (P3sh1-Pen) [Peptide P3sh1-Pen]
inhibitory activity towards LPS-induced CXCL10, TNF and IL-1β secretion (ELISA) [1]: did not cause loss of inhibitory activity
